Laboratory results from US8013156B2 (Exelixis, Inc., priority 2003, dated 2011).

What follows are compounds tested against Tie-2 (Homo sapiens, UniProt Q02763) (assay: Tie-2 tyrosine kinase activity assay (luciferase/luciferin ATP consumption with pEY substrate, or 33P-ATP incorporation)). Conditions: human enzyme Tie-2.
Type: biochemical
Outline: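 Values are IC50 categories (A <50 nM to D ≥10,000 nM), with Ki obtainable by fitting rates to a tight-binding model. Assay formats: 33P-ATP phosphate transfer to adsorbed generic substrate counted by scintillation, or luciferase-detected ATP depletion using pEY.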

Sequence of Tie-2 (Q02763 23-1124): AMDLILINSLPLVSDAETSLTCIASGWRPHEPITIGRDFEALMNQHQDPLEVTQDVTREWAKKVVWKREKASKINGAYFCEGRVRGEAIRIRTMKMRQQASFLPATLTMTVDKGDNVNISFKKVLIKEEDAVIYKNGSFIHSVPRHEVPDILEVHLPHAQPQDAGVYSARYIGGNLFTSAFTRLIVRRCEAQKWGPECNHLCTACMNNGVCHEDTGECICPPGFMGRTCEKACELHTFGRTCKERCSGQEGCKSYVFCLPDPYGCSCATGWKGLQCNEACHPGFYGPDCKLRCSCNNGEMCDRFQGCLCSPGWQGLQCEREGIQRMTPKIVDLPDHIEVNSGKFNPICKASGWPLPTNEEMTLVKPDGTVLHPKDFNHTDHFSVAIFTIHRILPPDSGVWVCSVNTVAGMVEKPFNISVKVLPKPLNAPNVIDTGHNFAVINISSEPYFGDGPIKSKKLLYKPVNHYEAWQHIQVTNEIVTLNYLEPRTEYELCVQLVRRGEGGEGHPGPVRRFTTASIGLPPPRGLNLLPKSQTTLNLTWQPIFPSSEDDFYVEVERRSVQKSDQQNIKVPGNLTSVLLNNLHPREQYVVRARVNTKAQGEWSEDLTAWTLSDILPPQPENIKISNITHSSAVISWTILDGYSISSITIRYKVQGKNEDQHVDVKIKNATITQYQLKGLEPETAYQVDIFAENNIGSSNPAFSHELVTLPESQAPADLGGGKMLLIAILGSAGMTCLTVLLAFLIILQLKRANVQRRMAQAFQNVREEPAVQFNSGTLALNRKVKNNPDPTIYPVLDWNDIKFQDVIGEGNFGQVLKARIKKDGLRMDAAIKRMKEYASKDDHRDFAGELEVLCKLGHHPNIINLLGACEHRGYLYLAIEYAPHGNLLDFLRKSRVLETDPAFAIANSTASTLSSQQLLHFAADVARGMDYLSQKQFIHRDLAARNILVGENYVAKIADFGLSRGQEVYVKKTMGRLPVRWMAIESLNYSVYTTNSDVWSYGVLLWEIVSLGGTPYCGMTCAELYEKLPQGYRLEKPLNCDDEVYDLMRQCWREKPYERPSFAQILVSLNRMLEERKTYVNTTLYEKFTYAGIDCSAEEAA

IC50 | Structure (SMILES)
≥ 10000 nM | O=C(Nc1cc(C(F)(F)F)cc(C(F)(F)F)c1)N1CCN(c2nsnc2OCc2ccsc2)CC1 [Example 13]
< 50 nM | O=C(Nc1cc(C(F)(F)F)cc(C(F)(F)F)c1)N1CCN(c2nccnc2OCc2ccncc2)CC1 [Example 38, N-[3,5-bis(trifluoromethyl)phenyl]-4-{3-[(pyridin-4-ylmethyl)oxy]pyrazin-2-yl}piperazine-1-carboxamide]
50 to 1000 nM | O=C(Nc1cc(C(F)(F)F)cc(C(F)(F)F)c1)N1CCCN(c2nccnc2OCc2ccncc2)CC1 [Example 75, N-[3,5-bis(trifluoromethyl)phenyl]-4-{3-[(pyridin-4-ylmethyl)oxy]pyrazin-2-yl}-1,4-diazepane-1-carboxamide]
≥ 10000 nM | O=C(O)c1cc(COc2nsnc2N2CCN(C(=O)Nc3cc(C(F)(F)F)cc(C(F)(F)F)c3)CC2)ccn1 [Example 139, 4-[({4-[4-({[3,5-bis(trifluoromethyl)phenyl]amino}carbonyl)piperazin-1-yl]-1,2,5-thiadiazol-3-yl}oxy)methyl]pyridine-2-carboxylic acid]
< 50 nM | CCc1cc(NC(=O)N2CCN(c3ncccc3OCc3ccnc(N)n3)CC2)cc(C(F)(F)F)c1 [Example 200, 4-(3-{[(2-aminopyrimidin-4-yl)methyl]oxy}pyridin-2-yl)-N-[3-ethyl-5-(trifluoromethyl)phenyl]piperazine-1-carboxamide]
< 50 nM | CCc1cccc(NC(=O)N2CCN(c3ncccc3OCc3ccnc(N)n3)CC2)c1 [Example 144, 4-(3-{[(2-aminopyrimidin-4-yl)methyl]oxy}pyridin-2-yl)-N-(3-ethylphenyl)piperazine-1-carboxamide]
50 to 1000 nM | CC1CN(c2nc3ccccc3nc2OCc2ccncc2)CCN1C(=O)Nc1cccc(C(F)(F)F)c1 (centres unmarked) [Example 76, 2-methyl-4-{3-[(pyridin-4-ylmethyl)oxy]quinoxalin-2-yl}-N-[3-(trifluoromethyl)phenyl]piperazine-1-carboxamide]
< 50 nM | O=C(Nc1cccc(C(F)(F)F)c1)N1CCN(c2nccnc2OCc2ccncc2)CC1 [Example 39, 4-{3-[(pyridin-4-ylmethyl)oxy]pyrazin-2-yl}-N-[3-(trifluoromethyl)phenyl]piperazine-1-carboxamide]
< 50 nM | CC(C)c1cccc(NC(=O)N2CCN(c3ncccc3OCc3ccnc(N)n3)CC2)c1 [Example 167, 4-(3-{[(2-aminopyrimidin-4-yl)methyl]oxy}pyridin-2-yl)-N-[3-(1-methylethyl)phenyl]piperazine-1-carboxamide]
1000 to 10000 nM | O=C(Nc1cc(C(F)(F)F)cc(C(F)(F)F)c1)N1CCN(c2nsnc2OCc2ccnc(F)c2)CC1 [Example 82, N-[3,5-bis(trifluoromethyl)phenyl]-4-(4-{[(2-fluoropyridin-4-yl)methyl]oxy}-1,2,5-thiadiazol-3-yl)piperazine-1-carboxamide]
50 to 1000 nM | O=C(Nc1cc(C(F)(F)F)cc(C(F)(F)F)c1)N1CCN(c2nsnc2OCc2ccncn2)CC1 [Example 138, N-[3,5-bis(trifluoromethyl)phenyl]-4-{4-[(pyrimidin-4-ylmethyl)oxy]-1,2,5-thiadiazol-3-yl}piperazine-1-carboxamide]
50 to 1000 nM | CC1CN(c2nc3ccccc3nc2OCc2ccncc2)CCN1C(=O)Nc1cc(C(F)(F)F)cc(C(F)(F)F)c1 (centres unmarked) [Example 74, N-[3,5-bis(trifluoromethyl)phenyl]-2-methyl-4-{3-[(pyridin-4-ylmethyl)oxy]quinoxalin-2-yl}piperazine-1-carboxamide]

More lines, now with the values behind:

Structure (SMILES) | IC50
CC(=O)N1CCN(c2ncccc2OCc2ccnc(NC(=O)CN3CCN(C)CC3)c2)CC1 [Example 185, N-[4-({[2-(4-acetylpiperazin-1-yl)pyridin-3-yl]oxy}methyl)pyridin-2-yl]-2-(4-methylpiperazin-1-yl)acetamide] | ≥ 10000 nM
Nc1nccc(COc2ccccc2N2CCN(C(=O)Nc3cc(C(F)(F)F)cc(C(F)(F)F)c3)CC2)n1 [Example 255, 4-(2-{[(2-aminopyrimidin-4-yl)methyl]oxy}phenyl)-N-[3,5-bis(trifluoromethyl)phenyl]piperazine-1-carboxamide] | < 50 nM
CCOC(=O)Nc1cc(COc2nsnc2N2CCN(C(=O)Nc3cc(C(F)(F)F)cc(C(F)(F)F)c3)CC2)ccn1 [Example 153, ethyl {4-[({4-[4-({[3,5-bis(trifluoromethyl)phenyl]amino}carbonyl)piperazin-1-yl]-1,2,5-thiadiazol-3-yl}oxy)methyl]pyridin-2-yl}carbamate] | < 50 nM
Nc1nccc(COc2nsnc2N2CCN(C(=O)Nc3ccc(F)c(F)c3)CC2)n1 [Example 265, 4-(4-{[(2-aminopyrimidin-4-yl)methyl]oxy}-1,2,5-thiadiazol-3-yl)-N-(3,4-difluorophenyl)piperazine-1-carboxamide] | ≥ 10000 nM
CCc1cccc(NC(=O)N2CCN(c3ncc(Br)cc3OCc3ccnc(N)n3)CC2)c1 [Example 190, 4-(3-{[(2-aminopyrimidin-4-yl)methyl]oxy}-5-bromopyridin-2-yl)-N-(3-ethylphenyl)piperazine-1-carboxamide] | < 50 nM
COC(=O)Nc1nccc(COc2nsnc2N2CCN(C(=O)Nc3cc(C(F)(F)F)cc(C(F)(F)F)c3)CC2)n1 [Example 131, methyl {4-[({4-[4-({[3,5-bis(trifluoromethyl)phenyl]amino}carbonyl)piperazin-1-yl]-1,2,5-thiadiazol-3-yl}oxy)methyl]pyrimidin-2-yl}carbamate] | < 50 nM
Nc1nccc(COc2nsnc2N2CCN(C(=O)Cc3ccc4ccccc4c3)CC2)n1 [Example 280, 4-[({4-[4-(naphthalen-2-ylacetyl)piperazin-1-yl]-1,2,5-thiadiazol-3-yl}oxy)methyl]pyrimidin-2-amine] | ≥ 10000 nM
Nc1nccc(COc2ccccc2N2CCN(C(=O)Nc3cc(Cl)cc(Cl)c3)CC2)n1 [Example 271, 4-(2-{[(2-aminopyrimidin-4-yl)methyl]oxy}phenyl)-N-(3,5-dichlorophenyl)piperazine-1-carboxamide] | < 50 nM
CC(C)c1cccc(NC(=O)N2CCN(c3nsnc3OCc3ccnc(N)n3)CC2)c1 [Example 261, 4-(4-{[(2-aminopyrimidin-4-yl)methyl]oxy}-1,2,5-thiadiazol-3-yl)-N-[3-(1-methylethyl)phenyl]piperazine-1-carboxamide] | < 50 nM
Nc1cc(COc2nsnc2N2CCN(C(=O)Nc3cccc4ccccc34)CC2)ccn1 [Example 149, 4-(4-{[(2-aminopyridin-4-yl)methyl]oxy}-1,2,5-thiadiazol-3-yl)-N-naphthalen-1-ylpiperazine-1-carboxamide] | ≥ 10000 nM
CCN1CCC(C(=O)Nc2cc(COc3nsnc3N3CCN(C(=O)Nc4cc(C(F)(F)F)cc(C(F)(F)F)c4)CC3)ccn2)CC1 [Example 146, N-[3,5-bis(trifluoromethyl)phenyl]-4-(4-{[(2-{[(1-ethylpiperidin-4-yl)carbonyl]amino}pyridin-4-yl)methyl]oxy}-1,2,5-thiadiazol-3-yl)piperazine-1-carboxamide] | < 50 nM
O=C(Nc1cc(COc2nsnc2N2CCN(C(=O)Nc3cc(C(F)(F)F)cc(C(F)(F)F)c3)CC2)ccn1)OCCN1CCOCC1 [Example 141, 2-morpholin-4-ylethyl {4-[({4-[4-({[3,5-bis(trifluoromethyl)phenyl]amino}carbonyl)piperazin-1-yl]-1,2,5-thiadiazol-3-yl}oxy)methyl]pyridin-2-yl}carbamate] | < 50 nM
CCCCNc1cc(COc2nsnc2N2CCNCC2)ccn1 [Example 111, N-butyl-4-{[(4-piperazin-1-yl-1,2,5-thiadiazol-3-yl)oxy]methyl}pyridin-2-amine] | ≥ 10000 nM
CCc1cccc(NC(=O)N2CCN(c3ncccc3OCc3ccnc(NC(=O)OCCN4CCN(C)CC4)c3)CC2)c1 [Example 182, 2-(4-methylpiperazin-1-yl)ethyl [4-({[2-(4-{[(3-ethylphenyl)amino]carbonyl}piperazin-1-yl)pyridin-3-yl]oxy}methyl)pyridin-2-yl]carbamate] | < 50 nM
